Test results taken from ChEMBL document CHEMBL1143836, “Predictors of mortality in patients with bloodstream infections caused by extended-spectrum-beta-lactamase-producing Enterobacteriaceae: importance of inadequate initial antimicrobial treatment” (2007).
Values after ≈ are worked out from the molar mass of the structure shown.

Experiments:
[1] = system: Proteus mirabilis; experiment: Antimicrobial activity against extended-spectrum-beta-lactamase producing Proteus mirabilis isolates; assay type: functional
[2] = system: Escherichia coli; experiment: Antimicrobial activity against extended-spectrum-beta-lactamase producing Escherichia coli assessed as percent resistant isolates; assay type: functional
[3] = system: Proteus mirabilis; experiment: Antimicrobial activity against extended-spectrum-beta-lactamase producing Proteus mirabilis assessed as percent resistant isolates; assay type: functional
[4] = system: Klebsiella pneumoniae; experiment: Antimicrobial activity against extended-spectrum-beta-lactamase producing Klebsiella pneumoniae isolates; assay type: functional
[5] = system: Escherichia coli; experiment: Antimicrobial activity against extended-spectrum-beta-lactamase producing Escherichia coli isolates; assay type: functional
[6] = system: Klebsiella pneumoniae; experiment: Antimicrobial activity against extended-spectrum-beta-lactamase producing Klebsiella pneumoniae assessed as percent susceptible isolates

Row | Compound | MIC50 [1] [µg/mL] | MIC90 [1] [µg/mL] | Activity [2] [%] | Activity [3] [%] | MIC50 [4] [µg/mL] | MIC90 [4] [µg/mL] | MIC50 [5] [µg/mL] | MIC90 [5] [µg/mL] | Activity [6] [%]
1 | CO[C@@]1(NC(=O)Cc2cccs2)C(=O)N2C(C(=O)O)=C(COC(N)=O)CS[C@@H]21 [CEFOXITIN] | 2 (≈ 4.68 µM) | 8 (≈ 18.7 µM) | 71.1 | 0 | 2 (≈ 4.68 µM) | ≥ 64 | 2 (≈ 4.68 µM) | ≥ 64 | 74.1
2 | C[C@H]1[C@H](NC(=O)/C(=N\OC(C)(C)C(=O)O)c2csc(N)n2)C(=O)N1S(=O)(=O)O (stereo in doubt) [AZTREONAM] | 0.25 (≈ 0.574 µM) | 1 (≈ 2.3 µM) |  | 0 | 256 (≈ 588 µM) | 256 (≈ 588 µM) | 256 (≈ 588 µM) | 256 (≈ 588 µM) | 0
3 | O=C(O)c1cn(C2CC2)c2cc(N3CCNCC3)c(F)cc2c1=O [CIPROFLOXACIN] | ≥ 16 | ≥ 16 | 8.6 | 12.5 | 2 (≈ 6.04 µM) | ≥ 16 | ≥ 16 | ≥ 16 | 46.5
4 | CO/N=C(\C(=O)N[C@@H]1C(=O)N2C(C(=O)O)=C(COC(C)=O)CS[C@H]12)c1csc(N)n1 [CEFOTAXIME] | 16 (≈ 35.1 µM) | 256 (≈ 562 µM) | 0 | 0 | 8 (≈ 17.6 µM) | 256 (≈ 562 µM) | 256 (≈ 562 µM) | 256 (≈ 562 µM) | 0
5 | C[C@H]1COc2c(N3CCN(C)CC3)c(F)cc3c(=O)c(C(=O)O)cn1c23.C[C@H]1COc2c(N3CCN(C)CC3)c(F)cc3c(=O)c(C(=O)O)cn1c23.O [LEVOFLOXACIN] | ≥ 32 | ≥ 32 | 8.6 | 12.5 | 2 | ≥ 32 | ≥ 32 | ≥ 32 | 48.2
6 | CO/N=C(\C(=O)N[C@@H]1C(=O)N2C(C(=O)[O-])=C(C[N+]3(C)CCCC3)CS[C@H]12)c1csc(N)n1 [CEFEPIME] | 2 (≈ 4.16 µM) | 32 (≈ 66.6 µM) | 0 | 0 | 1 (≈ 2.08 µM) | 256 (≈ 533 µM) | 16 (≈ 33.3 µM) | 256 (≈ 533 µM) | 0
7 | C[C@@H](O)[C@H]1C(=O)N2C(C(=O)O)=C(SCCNC=N)C[C@H]12 [IMIPENEM ANHYDROUS] | 1 (≈ 3.34 µM) | 4 (≈ 13.4 µM) | 100 | 100 | 0.25 (≈ 0.835 µM) | 0.25 (≈ 0.835 µM) |  |  | 100
8 | C[C@@H](O)[C@H]1C(=O)N2C(C(=O)O)=C(S[C@@H]3CN[C@H](C(=O)N(C)C)C3)[C@H](C)[C@H]12 [MEROPENEM] | 0.03 (≈ 0.0782 µM) | 0.25 (≈ 0.652 µM) | 100 | 100 | 0.03 (≈ 0.0782 µM) | 0.25 (≈ 0.652 µM) | 0.03 (≈ 0.0782 µM) | 0.25 (≈ 0.652 µM) | 100
9 | CC(C)(O/N=C(\C(=O)N[C@@H]1C(=O)N2C(C(=O)[O-])=C(C[n+]3ccccc3)CS[C@H]12)c1csc(N)n1)C(=O)O [CEFTAZIDIME] | 4 (≈ 7.32 µM) | 16 (≈ 29.3 µM) | 0 | 0 | 256 (≈ 468 µM) | 256 (≈ 468 µM) | 256 (≈ 468 µM) | 256 (≈ 468 µM) | 0
10 | NCC[C@H](O)C(=O)N[C@@H]1C[C@H](N)[C@@H](O[C@H]2O[C@H](CN)[C@@H](O)[C@H](O)[C@H]2O)[C@H](O)[C@H]1O[C@H]1O[C@H](CO)[C@@H](O)[C@H](N)[C@H]1O [AMIKACIN] | 2 (≈ 3.42 µM) | 4 (≈ 6.83 µM) | 98.1 | 100 | 2 (≈ 3.42 µM) | 16 (≈ 27.3 µM) | 2 (≈ 3.42 µM) | 8 (≈ 13.7 µM) | 91.4
